From patent publication US20220202799A1, “PHARMACEUTICAL FORMULATIONS CONTAINING P2Y14 ANTAGONISTS” (priority 2019, published 2022)
“And” between values parts separate entries of the source, which are not always exact repeats. Equal values may be shown once. Read-outs that look alike come from different tables or passages of the source.

Test: Plasma concentrations and TK parameters, 72-hour continuous intravenous infusion
Assay type: in vivo, Sprague-Dawley rats
Settings: for concentration at 48 h / concentration at 72 h / concentration at 78 h / concentration at 84 h / concentration at 96 h / concentration at 24 h: Sprague-Dawley, rat, plasma, iv
Description: The safety and pharmacokinetics of PPTN (KB-1801) in rats receiving continuous intravenous injections of SBECD-containing solutions were analyzed. Three cohorts of six male and six female rats each were given continuous intravenous infusion of PPTN (KB-1801) at 10 mg/kg/day, 30 mg/kg/day or 100 mg/kg/day in a dosing solution containing PPTN at 0.25 mg/mL, 0.75 mg/mL or 2.5 mg/mL and SBECD at about 3.8%. Dosing volume was 40 mIkg/day. [table]

For `O=C(O)c1cc(-c2ccc(C3CCNCC3)cc2)c2ccc(-c3ccc(C(F)(F)F)cc3)cc2c1` [KB-1801, 4-[4-(piperidin-4-yl)phenyl]-7-[4-(trifluoromethyl)phenyl]-2-naphthoic acid], the concentration at 48 h (female, 100 mg/kg/day, female Sprague-Dawley rats, 72-hour intravenous infusion at 100 mg/kg/day, time 48 h, read-out: Plasma concentration, individual animal) was 6070 ng/mL, the concentration at 72 h (female, 100 mg/kg/day, female Sprague-Dawley rats, 72-hour intravenous infusion at 100 mg/kg/day, time 72 h, read-out: Plasma concentration, Mean) was 6840 ng/mL and the concentration at 72 h (female, 100 mg/kg/day, female Sprague-Dawley rats, 72-hour intravenous infusion at 100 mg/kg/day, time 72 h, read-out: Plasma concentration, individual animal) was 7110 ng/mL. The concentration at 78 h (female, 100 mg/kg/day, female Sprague-Dawley rats, 72-hour intravenous infusion at 100 mg/kg/day, time 78 h, read-out: Plasma concentration, Mean) was 1820 ng/mL, the concentration at 78 h (female, 100 mg/kg/day, female Sprague-Dawley rats, 72-hour intravenous infusion at 100 mg/kg/day, time 78 h, read-out: Plasma concentration, individual animal) was 1900 ng/mL and the concentration at 84 h (female, 100 mg/kg/day, female Sprague-Dawley rats, 72-hour intravenous infusion at 100 mg/kg/day, time 84 h, read-out: Plasma concentration, Mean) was 987 ng/mL. The concentration at 84 h (female, 100 mg/kg/day, female Sprague-Dawley rats, 72-hour intravenous infusion at 100 mg/kg/day, time 84 h, read-out: Plasma concentration, individual animal) was 841 ng/mL, the concentration at 96 h (female, 100 mg/kg/day, female Sprague-Dawley rats, 72-hour intravenous infusion at 100 mg/kg/day, time 96 h, read-out: Plasma concentration, Mean) was 281 ng/mL and the concentration at 96 h (female, 100 mg/kg/day, female Sprague-Dawley rats, 72-hour intravenous infusion at 100 mg/kg/day, time 96 h, read-out: Plasma concentration, individual animal) was 288 ng/mL. The “Plasma concentration, individual animal” value (male Sprague-Dawley rats, 72-hour intravenous infusion at 10 mg/kg/day, time 24 h, 10 mg/kg/day) was 547.8 ng/mL and 952.8 ng/mL, the “Plasma concentration, individual animal” value (male Sprague-Dawley rats, 72-hour intravenous infusion at 10 mg/kg/day, time 48 h, 10 mg/kg/day) was 539.5 ng/mL and 752.7 ng/mL and the “Plasma concentration, individual animal” value (male Sprague-Dawley rats, 72-hour intravenous infusion at 10 mg/kg/day, time 72 h, 10 mg/kg/day) was 617.8 ng/mL and 545.9 ng/mL. The “Plasma concentration, individual animal” value (male Sprague-Dawley rats, 72-hour intravenous infusion at 10 mg/kg/day, time 78 h, 10 mg/kg/day) was 205.5 ng/mL and 170.5 ng/mL, the “Plasma concentration, individual animal” value (male Sprague-Dawley rats, 72-hour intravenous infusion at 10 mg/kg/day, time 84 h, 10 mg/kg/day) was 82.6 ng/mL and 128.1 ng/mL and the “Plasma concentration, individual animal” value (male Sprague-Dawley rats, 72-hour intravenous infusion at 10 mg/kg/day, time 96 h, 10 mg/kg/day) was 60.2 ng/mL and 45.0 ng/mL. For the same compound, the “Plasma concentration, individual animal” value (male Sprague-Dawley rats, 72-hour intravenous infusion at 30 mg/kg/day, time 24 h, 30 mg/kg/day) was 1855.0 ng/mL and 2482.4 ng/mL, the “Plasma concentration, individual animal” value (male Sprague-Dawley rats, 72-hour intravenous infusion at 30 mg/kg/day, time 48 h, 30 mg/kg/day) was 2175.6 ng/mL and 2510.8 ng/mL and the “Plasma concentration, individual animal” value (male Sprague-Dawley rats, 72-hour intravenous infusion at 30 mg/kg/day, time 72 h, 30 mg/kg/day) was 1871.2 ng/mL and 2031.5 ng/mL. The “Plasma concentration, individual animal” value (male Sprague-Dawley rats, 72-hour intravenous infusion at 30 mg/kg/day, time 78 h, 30 mg/kg/day) was 690.2 ng/mL and 818.5 ng/mL, the “Plasma concentration, individual animal” value (male Sprague-Dawley rats, 72-hour intravenous infusion at 30 mg/kg/day, time 84 h, 30 mg/kg/day) was 273.1 ng/mL and 309.1 ng/mL and the “Plasma concentration, individual animal” value (male Sprague-Dawley rats, 72-hour intravenous infusion at 30 mg/kg/day, time 96 h, 30 mg/kg/day) was 164.1 ng/mL and 213.1 ng/mL. For the same compound, the “Plasma concentration, individual animal” value (male Sprague-Dawley rats, 72-hour intravenous infusion at 100 mg/kg, time 24 h, 100 mg/kg) was 7597.9 ng/mL and 10702.8 ng/mL, the “Plasma concentration, individual animal” value (male Sprague-Dawley rats, 72-hour intravenous infusion at 100 mg/kg, time 48 h, 100 mg/kg) was 6182.8 ng/mL and 7504.3 ng/mL and the “Plasma concentration, individual animal” value (male Sprague-Dawley rats, 72-hour intravenous infusion at 100 mg/kg, time 72 h, 100 mg/kg) was 7768.2 ng/mL. The “Plasma concentration, individual animal” value (male Sprague-Dawley rats, 72-hour intravenous infusion at 100 mg/kg, time 78 h, 100 mg/kg) was 1893.5 ng/mL and 2808.6 ng/mL, the “Plasma concentration, individual animal” value (male Sprague-Dawley rats, 72-hour intravenous infusion at 100 mg/kg, time 84 h, 100 mg/kg) was 1818.2 ng/mL and the “Plasma concentration, individual animal” value (male Sprague-Dawley rats, 72-hour intravenous infusion at 100 mg/kg, time 96 h, 100 mg/kg) was 333.5 ng/mL and 482.1 ng/mL. For the same compound, the concentration at 24 h (male, 10 mg/kg/day, male Sprague-Dawley rats, 72-hour intravenous infusion at 10 mg/kg/day, time 24 h, read-out: Plasma concentration, Mean) was 803 ng/mL, the concentration at 24 h (male, 10 mg/kg/day, male Sprague-Dawley rats, 72-hour intravenous infusion at 10 mg/kg/day, time 24 h, read-out: Plasma concentration, individual animal) was 908 ng/mL and the concentration at 48 h (male, 10 mg/kg/day, male Sprague-Dawley rats, 72-hour intravenous infusion at 10 mg/kg/day, time 48 h, read-out: Plasma concentration, Mean) was 602 ng/mL. It also gave a concentration at 48 h (male, 10 mg/kg/day, male Sprague-Dawley rats, 72-hour intravenous infusion at 10 mg/kg/day, time 48 h, read-out: Plasma concentration, individual animal) of 515 ng/mL, a concentration at 72 h (male, 10 mg/kg/day, male Sprague-Dawley rats, 72-hour intravenous infusion at 10 mg/kg/day, time 72 h, read-out: Plasma concentration, Mean) of 594 ng/mL and a concentration at 72 h (male, 10 mg/kg/day, male Sprague-Dawley rats, 72-hour intravenous infusion at 10 mg/kg/day, time 72 h, read-out: Plasma concentration, individual animal) of 618 ng/mL. The concentration at 78 h (male, 10 mg/kg/day, male Sprague-Dawley rats, 72-hour intravenous infusion at 10 mg/kg/day, time 78 h, read-out: Plasma concentration, Mean) was 208 ng/mL, the concentration at 78 h (male, 10 mg/kg/day, male Sprague-Dawley rats, 72-hour intravenous infusion at 10 mg/kg/day, time 78 h, read-out: Plasma concentration, individual animal) was 249 ng/mL and the concentration at 84 h (male, 10 mg/kg/day, male Sprague-Dawley rats, 72-hour intravenous infusion at 10 mg/kg/day, time 84 h, read-out: Plasma concentration, Mean) was 98.9 ng/mL. For the same compound, the concentration at 84 h (male, 10 mg/kg/day, male Sprague-Dawley rats, 72-hour intravenous infusion at 10 mg/kg/day, time 84 h, read-out: Plasma concentration, individual animal) was 86 ng/mL, the concentration at 96 h (male, 10 mg/kg/day, male Sprague-Dawley rats, 72-hour intravenous infusion at 10 mg/kg/day, time 96 h, read-out: Plasma concentration, Mean) was 55.1 ng/mL and the concentration at 96 h (male, 10 mg/kg/day, male Sprague-Dawley rats, 72-hour intravenous infusion at 10 mg/kg/day, time 96 h, read-out: Plasma concentration, individual animal) was 60 ng/mL. It also gave a concentration at 24 h (male, 30 mg/kg/day, male Sprague-Dawley rats, 72-hour intravenous infusion at 30 mg/kg/day, time 24 h, read-out: Plasma concentration, Mean) of 1950 ng/mL, a concentration at 24 h (male, 30 mg/kg/day, male Sprague-Dawley rats, 72-hour intravenous infusion at 30 mg/kg/day, time 24 h, read-out: Plasma concentration, individual animal) of 1520 ng/mL and a concentration at 48 h (male, 30 mg/kg/day, male Sprague-Dawley rats, 72-hour intravenous infusion at 30 mg/kg/day, time 48 h, read-out: Plasma concentration, Mean) of 2500 ng/mL. For the same compound, the concentration at 48 h (male, 30 mg/kg/day, male Sprague-Dawley rats, 72-hour intravenous infusion at 30 mg/kg/day, time 48 h, read-out: Plasma concentration, individual animal) was 2800 ng/mL, the concentration at 72 h (male, 30 mg/kg/day, male Sprague-Dawley rats, 72-hour intravenous infusion at 30 mg/kg/day, time 72 h, read-out: Plasma concentration, Mean) was 1670 ng/mL and the concentration at 72 h (male, 30 mg/kg/day, male Sprague-Dawley rats, 72-hour intravenous infusion at 30 mg/kg/day, time 72 h, read-out: Plasma concentration, individual animal) was 1110 ng/mL. It also gave a concentration at 78 h (male, 30 mg/kg/day, male Sprague-Dawley rats, 72-hour intravenous infusion at 30 mg/kg/day, time 78 h, read-out: Plasma concentration, Mean) of 736 ng/mL, a concentration at 78 h (male, 30 mg/kg/day, male Sprague-Dawley rats, 72-hour intravenous infusion at 30 mg/kg/day, time 78 h, read-out: Plasma concentration, individual animal) of 698 ng/mL and a concentration at 84 h (male, 30 mg/kg/day, male Sprague-Dawley rats, 72-hour intravenous infusion at 30 mg/kg/day, time 84 h, read-out: Plasma concentration, Mean) of 290 ng/mL. For the same compound, the concentration at 84 h (male, 30 mg/kg/day, male Sprague-Dawley rats, 72-hour intravenous infusion at 30 mg/kg/day, time 84 h, read-out: Plasma concentration, individual animal) was 289 ng/mL, the concentration at 96 h (male, 30 mg/kg/day, male Sprague-Dawley rats, 72-hour intravenous infusion at 30 mg/kg/day, time 96 h, read-out: Plasma concentration, Mean) was 172 ng/mL and the concentration at 96 h (male, 30 mg/kg/day, male Sprague-Dawley rats, 72-hour intravenous infusion at 30 mg/kg/day, time 96 h, read-out: Plasma concentration, individual animal) was 139 ng/mL. The concentration at 24 h (male, 100 mg/kg, male Sprague-Dawley rats, 72-hour intravenous infusion at 100 mg/kg, time 24 h, read-out: Plasma concentration, Mean) was 9550 ng/mL, the concentration at 24 h (male, 100 mg/kg, male Sprague-Dawley rats, 72-hour intravenous infusion at 100 mg/kg, time 24 h, read-out: Plasma concentration, individual animal) was 10300 ng/mL and the concentration at 48 h (male, 100 mg/kg, male Sprague-Dawley rats, 72-hour intravenous infusion at 100 mg/kg, time 48 h, read-out: Plasma concentration, Mean) was 7030 ng/mL. The concentration at 48 h (male, 100 mg/kg, male Sprague-Dawley rats, 72-hour intravenous infusion at 100 mg/kg, time 48 h, read-out: Plasma concentration, individual animal) was 7400 ng/mL, the concentration at 72 h (male, 100 mg/kg, male Sprague-Dawley rats, 72-hour intravenous infusion at 100 mg/kg, time 72 h, read-out: Plasma concentration, Mean) was 9790 ng/mL and the concentration at 72 h (male, 100 mg/kg, male Sprague-Dawley rats, 72-hour intravenous infusion at 100 mg/kg, time 72 h, read-out: Plasma concentration, individual animal) was 11800 ng/mL. It also gave a concentration at 78 h (male, 100 mg/kg, male Sprague-Dawley rats, 72-hour intravenous infusion at 100 mg/kg, time 78 h, read-out: Plasma concentration, Mean) of 2640 ng/mL, a concentration at 78 h (male, 100 mg/kg, male Sprague-Dawley rats, 72-hour intravenous infusion at 100 mg/kg, time 78 h, read-out: Plasma concentration, individual animal) of 3220 ng/mL and a concentration at 84 h (male, 100 mg/kg, male Sprague-Dawley rats, 72-hour intravenous infusion at 100 mg/kg, time 84 h, read-out: Plasma concentration, Mean) of 2230 ng/mL. The concentration at 84 h (male, 100 mg/kg, male Sprague-Dawley rats, 72-hour intravenous infusion at 100 mg/kg, time 84 h, read-out: Plasma concentration, individual animal) was 2650 ng/mL, the concentration at 96 h (male, 100 mg/kg, male Sprague-Dawley rats, 72-hour intravenous infusion at 100 mg/kg, time 96 h, read-out: Plasma concentration, Mean) was 471 ng/mL and the concentration at 96 h (male, 100 mg/kg, male Sprague-Dawley rats, 72-hour intravenous infusion at 100 mg/kg, time 96 h, read-out: Plasma concentration, individual animal) was 598 ng/mL. The “Time for plasma PPTN concentrations to reach steady state” value (rats, continuous intravenous infusion) was ≤ 24 h and the “Plasma PPTN concentrations, relation to dose” value (rats, continuous intravenous infusion 10, 30, 100 mg/kg/day) was “linearly dose-related”.
